Experimental data: patent US10155768B2, “Fused pyrimidine compound or salt thereof” (TAIHO PHARMACEUTICAL CO., LTD., priority 2016, dated 2018)

Assay: Evaluation of stability in liver microsome
Conditions: for Remaining (%): mouse liver microsome 0.25 mg/mL, 1 μM test compound, 37° C. for 30 minutes

Remaining (%)	percentage of the remaining test compounds (remaining %) (mouse liver microsome, 1 μM, 37° C., 30 minutes) [%]	SMILES
59		CCC(O)CC#Cc1c(C(=O)Nc2ccc(COC)cc2)c2c(N)ncnc2n1C1(C)CC1 (stereo not shown) [Example 157, 4-amino-6-(4-hydroxyhex-1-yn-1-yl)-N-(4-(methoxymethyl)phenyl)-7-(1-methylcyclopropyl)-7H-pyrrolo[2,3-d]pyrimidine-5-carboxamide]
70		COCc1ccc(NC(=O)c2c(C#Cc3cncc(C#N)c3)n(C3(C)CC3)c3ncnc(N)c23)cc1 [Example 195, 4-amino-6-((5-cyanopyridin-3-yl)ethynyl)-N-(4-(methoxymethyl)phenyl)-7-(1-methylcyclopropyl)-7H-pyrrolo[2,3-d]pyrimidine-5-carboxamide]
61		COCc1ccc(NC(=O)c2c(C#Cc3ccccn3)n(C3(C)CC3)c3ncnc(N)c23)cc1 [Example 172, 4-amino-N-[4-(methoxymethyl)phenyl]-7-(1-methylcyclopropyl)-6-(pyridin-2-ylethynyl)-7H-pyrrolo[2,3-d]pyrimidine-5-carboxamide]
80		COCc1ccc(NC(=O)c2c(C#CC3(O)CCOCC3)n(C3(C)CC3)c3ncnc(N)c23)cc1 [Example 185, 4-amino-6-((4-hydroxytetrahydro-2H-pyran4-yl)ethynyl)-N-(4-(methoxymethyl)phenyl)-7-(1-methylcyclopropyl)-7H-pyrrolo[2,3-d]pyrimidine-5-carboxamide]
83		COCc1ccc(NC(=O)c2c(C(C)O)n(C3(C)CC3)c3ncnc(N)c23)cc1 (stereo not shown) [Example 204, 4-amino-6-(1-hydroxyethyl)-N-(4-(methoxymethyl)phenyl)-7-(1-methylcyclopropyl)-7H-pyrrolo[2,3-d]pyrimidine-5-carboxamide]
68		COCc1ccc(NC(=O)c2c(C3=CCOCC3)n(C3(C)CC3)c3ncnc(N)c23)cc1 [Example 203, 4-amino-6-(3,6-dihydro-2H-pyran-4-yl)-N-(4-(methoxymethyl)phenyl)-7-(1-methylcyclopropyl)-7H-pyrrolo[2,3-d]pyrimidine-5-carboxamide]
67		COCc1ccc(NC(=O)c2c(-c3cncnc3)n(C3(C)CC3)c3ncnc(N)c23)cc1 [Example 194, 4-amino-N-(4-(methoxymethyl)phenyl)-7-(1-methylcyclopropyl)-6-(pyrimidin-5-yl)-7H-pyrrolo[2,3-d]pyrimidine-5-carboxamide]
57		COCc1ccc(NC(=O)c2c(C#CCN(C)C)n(C3(C)CC3)c3ncnc(N)c23)cc1 [Example 198, 4-amino-6-(3-(dimethylamino)prop-1-yn-1-yl)-N-(4-(methoxymethyl)phenyl)-7-(1-methylcyclopropyl)-7H-pyrrolo[2,3-d]pyrimidine-5-carboxamide]
68		COCc1ccc(NC(=O)c2c(C#CCC(C)O)n(C3(C)CC3)c3ncnc(N)c23)cc1 (stereo not shown) [Example 188, 4-amino-6-(4-hydroxypent-1-yn-1-yl)-N-(4-(methoxymethyl)phenyl)-7-(1-methylcyclopropyl)-7H-pyrrolo[2,3-d]pyrimidine-5-carboxamide]
70		COCc1ccc(NC(=O)c2c(C#Cc3ccsc3)n(C3(C)CC3)c3ncnc(N)c23)cc1 [Example 176, 4-amino-N-(4-(methoxymethyl)phenyl)-7-(1-methylcyclopropyl)-6-(thiophen-3-ylethynyl)-7H-pyrrolo[2,3-d]pyrimidine-5-carboxamide]

More lines, now with the values behind:

SMILES	Remaining (%)	percentage of the remaining test compounds (remaining %) (mouse liver microsome, 1 μM, 37° C., 30 minutes) [%]
Nc1ncnc2c1c(C(=O)Nc1ccc(Oc3ccccc3)cc1)cn2C1CCCC1 [Compound 2 of Comparative Examples, 4-amino-7-cyclopentyl-N-(4-phenoxyphenyl)-7H-pyrrolo[2,3-d]pyrimidine-5-carboxamide, reference compound]	0	0
COCc1ccc(NC(=O)c2c(OCC(C)C)n(C3(C)CC3)c3ncnc(N)c23)cc1 [Example 99, 4-amino-6-isobutoxy-N-(4-(methoxymethyl)phenyl)-7-(1-methylcyclopropyl)-7H-pyrrolo[2,3-d]pyrimidine-5-carboxamide]	51	
COCc1ccc(NC(=O)c2c(C#Cc3cccc(F)c3)n(C3(C)CC3)c3ncnc(N)c23)cc1 [Example 130, 4-amino-6-((3-fluorophenyl)ethynyl)-N-(4-(methoxymethyl)phenyl)-7-(1-methylcyclopropyl)-7H-pyrrolo[2,3-d]pyrimidine-5-carboxamide]	84	
COCc1ccc(NC(=O)c2c(C#Cc3cnc4[nH]ccc4c3)n(C3(C)CC3)c3ncnc(N)c23)cc1 [Example 128, 6-((1H-pyrrolo[2,3-b]pyridine-5-yl)ethynyl)-4-amino-N-(4-(methoxymethyl)phenyl)-7-(1-methylcyclopropyl)-7H-pyrrolo[2,3-d]pyrimidine-5-carboxamide]	82	
COCc1ccc(NC(=O)c2c(-c3ccc(NC(C)=O)nc3)n(C3(C)CC3)c3ncnc(N)c23)cc1 [Example 147, 6-(6-acetamidopyridin-3-yl)-4-amino-N-(4-(methoxymethyl)phenyl)-7-(1-methylcyclopropyl)-7H-pyrrolo[2,3-d]pyrimidine-5-carboxamide]	68	
COCc1ccc(NC(=O)c2c(C#Cc3csc(C)n3)n(C3(C)CC3)c3ncnc(N)c23)cc1 [Example 126, 4-amino-N-(4-(methoxymethyl)phenyl)-7-(1-methylcyclopropyl)-6-((2-methylthiazol-4-yl)ethynyl)-7H-pyrrolo[2,3-d]pyrimidine-5-carboxamide]	69	
COCc1ccc(NC(=O)c2c(OC)n(C3(C)CC3)c3ncnc(N)c23)cc1 [Example 57, 4-amino-6-methoxy-N-[4-(methoxymethyl)phenyl]-7-(1-methylcyclopropyl)-7H-pyrrolo[2,3-d]pyrimidine-5-carboxamide]	86	
COCc1ccc(NC(=O)c2cn(C3(C)CC3)c3ncnc(N)c23)cc1 [Example 36, 4-amino-N-(4-(methoxymethyl)phenyl)-7-(1-methylcyclopropyl)-7H-pyrrolo[2,3-d]pyrimidine-5-carboxamide]	73	
COCc1ccc(NC(=O)c2c(C#Cc3ccc(N)nc3)n(C3(C)CC3)c3ncnc(N)c23)cc1 [Example 155, 4-amino-6-((6-aminopyridin-3-yl)ethynyl)-N-(4-(methoxymethyl)phenyl)-7-(1-methylcyclopropyl)-7H-pyrrolo[2,3-d]pyrimidine-5-carboxamide]	64	
COCc1ccc(NC(=O)c2c(C#Cc3cnn(C)c3)n(C3(C)CC3)c3ncnc(N)c23)cc1 [Example 90, 4-amino-N-[4-(methoxymethyl)phenyl]-6-((1-methyl-1H-pyrazol-4-yl)ethynyl)-7-(1-methylcyclopropyl)-7H-pyrrolo[2,3-d]pyrimidine-5-carboxamide]	67	
COCc1ccc(NC(=O)c2c(-c3ccccc3)n(C3(C)CC3)c3ncnc(N)c23)cc1 [Example 154, 4-amino-N-(4-(methoxymethyl)phenyl)-7-(1-methylcyclopropyl)-6-phenyl-7H-pyrrolo[2,3-d]pyrimidine-5-carboxamide]	50	
COCc1ccc(NC(=O)c2c(C#CC(C)(C)N)n(C3(C)CC3)c3ncnc(N)c23)cc1 [Example 134, 4-amino-6-(3-amino-3-methylbut-1-yn-1-yl)-N-(4-(methoxymethyl)phenyl)-7-(1-methylcyclopropyl)-7H-pyrrolo[2,3-d]pyrimidine-5-carboxamide]	79	
COCc1ccc(NC(=O)c2c(OCC3CCOC3)n(C3(C)CC3)c3ncnc(N)c23)cc1 (stereo not shown) [Example 101, 4-amino-N-(4-(methoxymethyl)phenyl)-7-(1methylcyclopropyl)-6-((tetrahydrofuran-3-yl)methoxy)-7H-pyrrolo[2,3-d]pyrimidine-5-carboxamide]	68	
COCc1ccc(NC(=O)c2cn(C(C)(C)C)c3ncnc(N)c23)cc1F [Example 30, 4-amino-7-(tert-butyl)-N-(3-fluoro-4-(methoxymethyl)phenyl)-7H-pyrrolo[2,3-d]pyrimidine-5-carboxamide]	54	
COCc1ccc(NC(=O)c2c(F)n(C3(C)CC3)c3ncnc(N)c23)cc1 [Example 69, 4-amino-6-fluoro-N-(4-(methoxymethyl)phenyl)-7-(1-methylcyclopropyl)-7H-pyrrolo[2,3-d]pyrimidine-5-carboxamide]	69	
COCc1ccc(NC(=O)c2c(-c3cnn(C)c3)n(C3(C)CC3)c3ncnc(N)c23)cc1 [Example 150, 4-amino-N-(4-(methoxymethyl)phenyl)-6-(1-methyl-1H-pyrazol-4-yl)-7-(1-methylcyclopropyl)-7H-pyrrolo[2,3-d]pyrimidine-5-carboxamide]	78	
COCc1ccc(NC(=O)c2c(C#Cc3cccs3)n(C3(C)CC3)c3ncnc(N)c23)cc1 [Example 119, 4-amino-N-(4-(methoxymethyl)phenyl)-7-(1-methylcyclopropyl)-6-(thiophen-2-ylethynyl)-7H-pyrrolo[2,3-d]pyrimidine-5-carboxamide]	70	
COCc1ccc(NC(=O)c2c(SC)n(C3(C)CC3)c3ncnc(N)c23)cc1 [Example 133, 4-amino-N-(4-methoxymethyl)phenyl-7-(1-methylcyclopropyl)-6-(methylthio)-7H-pyrrolo[2,3-d]pyrimidine-5-carboxamide]	70	
COCc1ccc(NC(=O)c2c(C#Cc3cnn(C(C)C)c3)n(C3(C)CC3)c3ncnc(N)c23)cc1 [Example 144, 4-amino-6-((1-isopropyl-1H-pyrazol-4-yl)ethynyl)-N-(4-(methoxymethyl)phenyl)-7-(1-methylcyclopropyl)-7H-pyrrolo[2,3-d]pyrimidine-5-carboxamide]	79	
COCc1ccc(NC(=O)c2c(C#Cc3ccn(C)n3)n(C3(C)CC3)c3ncnc(N)c23)cc1 [Example 92, 4-amino-N-(4-(methoxymethyl)phenyl)-6-((1-methyl-1H-pyrazol-3-yl)ethynyl)-7-(1-methylcyclopropyl)-7H-pyrrolo[2,3-d]pyrimidine-5-carboxamide]	67	
